As a reminder, the IC50 is the concentration at which inhibition is half-maximal.

The target in the test is T1, Diacylglycerol O-acyltransferase 1 (Mus musculus, UniProt Q9Z2A7).
T1 sequence (Q9Z2A7 whole entry): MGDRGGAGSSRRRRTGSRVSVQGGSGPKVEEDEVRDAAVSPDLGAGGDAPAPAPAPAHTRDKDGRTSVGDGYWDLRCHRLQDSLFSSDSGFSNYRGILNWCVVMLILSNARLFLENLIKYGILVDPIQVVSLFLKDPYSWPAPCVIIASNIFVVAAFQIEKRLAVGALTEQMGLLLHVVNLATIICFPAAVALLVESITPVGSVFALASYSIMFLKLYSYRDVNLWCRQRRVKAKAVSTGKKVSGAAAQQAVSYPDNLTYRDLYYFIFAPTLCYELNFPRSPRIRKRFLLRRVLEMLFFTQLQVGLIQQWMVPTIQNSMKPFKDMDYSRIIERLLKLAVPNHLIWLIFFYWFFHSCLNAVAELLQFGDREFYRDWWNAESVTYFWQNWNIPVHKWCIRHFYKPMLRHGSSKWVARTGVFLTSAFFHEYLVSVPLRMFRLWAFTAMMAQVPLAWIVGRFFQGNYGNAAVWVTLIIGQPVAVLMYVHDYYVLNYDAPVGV
Kind of test: Inhibition of mouse recombinant DGAT1 expressed in Sf9 cells.

Regarding `O=C(Nc1ccc(-c2ccc(C(=O)[C@@H]3CCC[C@H]3C(=O)O)cc2)cc1)Nc1cc(C(F)(F)F)ccc1F`, the IC50 came out at 21 nM.

With `O=C(Nc1ccc(-c2ccc(C(=O)[C@@H]3CCC[C@H]3C(=O)O)cc2)cc1)Nc1cccc(C(F)(F)F)c1`, the IC50 stood at 17 nM.

In the case of `O=C(Nc1ccc(-c2ccc(C(=O)[C@@H]3CCC[C@H]3C(=O)O)cc2)cc1)Nc1cccc(Cl)c1`, the IC50 amounted to 19 nM.
